This is an account of results in patent US9955691B2, “Macrocyclic picolinamides as fungicides” (DOW AGROSCIENCES LLC, priority 2014, dated 2018).

Read-outs that look alike come from different tables or passages of the source.

Common to all, as to type: in vivo
Test [1] concerns Leptosphaeria nodorum. The test is described as follows: Fungicidal activity: Wheat Glume Blotch (LEPTNO). Particulars: 100 ppm, 1 DP (1 Day Protectant). Here is the method: Technical grades of materials were dissolved in acetone, which were then mixed with nine volumes of water containing 110 ppm Triton X-100. The fungicide solutions were applied onto wheat seedlings using an automated booth sprayer to run-off. All sprayed plants were allowed to air dry prior to further handling. All fungicides were evaluated using the aforementioned method for their activity vs. all target diseases, unless stated otherwise. Wheat leaf blotch and brown rust activity were also evaluated using track spray applications, in which case the fungicides were formulated as EC formulations, containing 0.1% Trycol 5941 in the spray solutions. Wheat plants (variety Yuma) were grown from seed in a greenhouse in 50% mineral soil/50% soil-less Metro mix until the first leaf was fully emerged, with 7-10 seedlings per pot. These plants were inoculated with an aqueous spore suspension of Septoria tritici either prior to or after fungicide treatments. After inoculation the plants were kept in 100% relative humidity (one day in a dark dew chamber followed by two to three days in a lighted dew chamber at 20° C.) to permit spores to germinate and infect the leaf. The plants were then transferred to a greenhouse set at 20° C. for disease to develop. When disease symptoms were fully expressed on the 1st leaves of untreated plants, infection levels were assessed on a scale of 0 to 100 percent disease severity. Percent disease control was calculated using the ratio of disease severity on treated plants relative to untreated plants. Evaluation of Fungicidal Activity: Wheat Glume Blotch (Leptosphaeria nodorum; Bayer Code […]) Wheat plants (variety Yuma) were grown from seed in a greenhouse in 50% mineral soil/50% soil-less Metro mix until the first leaf was fully emerged, with 7-10 seedlings per pot. These plants were inoculated with an aqueous spore suspension of Leptosphaeria nodorum 24 hr after fungicide treatments. After inoculation the plants were kept in 100% relative humidity (one day in a dark dew chamber followed by two days in a lighted dew chamber at 20° C.) to permit spores to germinate and infect the leaf. The plants were then transferred to a greenhouse set at 20° C. for disease to develop. Fungicide formulation, application and disease assessment followed the procedures as described in the Example A.

For test [2], the system named is Blumeria graminis f. sp. hordei. The experiment in a line: Fungicidal activity: Barley Powdery Mildew (ERYSGH). The settings on record: 100 ppm, 1 DP (1 Day Protectant). Here is the method:
Technical grades of materials were dissolved in acetone, which were then mixed with nine volumes of water containing 110 ppm Triton X-100. The fungicide solutions were applied onto wheat seedlings using an automated booth sprayer to run-off. All sprayed plants were allowed to air dry prior to further handling. All fungicides were evaluated using the aforementioned method for their activity vs. all target diseases, unless stated otherwise. Wheat leaf blotch and brown rust activity were also evaluated using track spray applications, in which case the fungicides were formulated as EC formulations, containing 0.1% Trycol 5941 in the spray solutions. Wheat plants (variety Yuma) were grown from seed in a greenhouse in 50% mineral soil/50% soil-less Metro mix until the first leaf was fully emerged, with 7-10 seedlings per pot. These plants were inoculated with an aqueous spore suspension of Septoria tritici either prior to or after fungicide treatments. After inoculation the plants were kept in 100% relative humidity (one day in a dark dew chamber followed by two to three days in a lighted dew chamber at 20° C.) to permit spores to germinate and infect the leaf. The plants were then transferred to a greenhouse set at 20° C. for disease to develop. When disease symptoms were fully expressed on the 1st leaves of untreated plants, infection levels were assessed on a scale of 0 to 100 percent disease severity. Percent disease control was calculated using the ratio of disease severity on treated plants relative to untreated plants. Evaluation of Fungicidal Activity: Barley Powdery Mildew (Blumeria graminis f. Sp. hordei; Synonym: Erysiphe graminis f. Sp. hordei; Bayer Code […]) Barley seedlings (variety Harrington) were propagated in soil-less Metro mix, with each pot having 8 to 12 plants, and used in the test when first leaf was fully emerged. Test plants were inoculated by dusting with infected stock plants 24 hr after fungicide treatments. After inoculation the plants were kept in a greenhouse set at 20° C. for disease to develop. Fungicide formulation, application and disease assessment on the sprayed leaves followed the procedures as described in the Example A.

Test [3] concerns Puccinia triticina. The test is described as follows: Fungicidal activity: Wheat Brown Rust (PUCCRT). Particulars: for pest or weed control at 100 µg/mL: High Volume (100 ppm); for pest or weed control at 121.5 g/ha: Low Volume (121.5 g/H). In outline: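 Wheat seedlings (Yuma, first leaf) sprayed to run-off with compound in acetone/water with Triton X-100, inoculated with Puccinia triticina before or after treatment. Held overnight in dark dew at 22° C, then greenhouse at 24° C; percent disease control from severity versus untreated plants.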

Setting [4] is: 24 h, 1 Day Protectant, read-out: PUCCRT 1 DP disease control.
Setting [5] is: 72 h, 3 Day Curative, read-out: PUCCRT 3 DC disease control.

Consider `COc1ccnc(C(=O)N[C@H]2COC[C@H](Cc3ccccc3)[C@@H](Cc3ccccc3)[C@H](C)OC2=O)c1OCOC(C)=O` [Cmpd. 3, ((2-(((3S,7R,8R,9S)-7,8-dibenzyl-9-methyl-2-oxo-1,5-dioxonan-3-yl)carbamoyl)-4-methoxypyridin-3-yl)oxy)methyl acetate], for which the “LEPTNO disease control rating” value in test [1] was “A (>70)”. In test [2], the “ERYSGH disease control rating” value is “A (>70)”. Further, in test [3] (setting [4]), the pest or weed control at 100 µg/mL was over 70% and the pest or weed control at 121.5 g/ha was over 70%. For the same compound, in test [3] (setting [5]), the pest or weed control at 100 µg/mL is under 70% and the pest or weed control at 121.5 g/ha was over 70%.
With `CCCC[C@@H]1[C@@H](Cc2ccccc2)COC[C@H](NC(=O)c2nccc(OC)c2OCOC(=O)C(C)C)C(=O)O[C@H]1C` [compound 1], the “LEPTNO disease control rating” value in test [1] is recorded as “A (>70)”. The “ERYSGH disease control rating” value in test [2] is “A (>70)”. For the same compound, in test [3] (setting [4]), the pest or weed control at 100 µg/mL is over 70% and the pest or weed control at 121.5 g/ha was over 70%. Moreover, in test [3] (setting [5]), the pest or weed control at 100 µg/mL is over 70% and the pest or weed control at 121.5 g/ha is under 70%.
Regarding `COc1ccnc(C(=O)N[C@H]2COC[C@H](c3ccccc3)[C@@H](c3ccccc3)[C@H](C)OC2=O)c1OCOC(C)=O` [compound 7], the “ERYSGH disease control rating” value in test [2] is listed as “A (>70)”. Moreover, in test [3] (setting [4]), the pest or weed control at 100 µg/mL was over 70% and the pest or weed control at 121.5 g/ha was over 70%. In addition, in test [3] (setting [5]), the pest or weed control at 100 µg/mL is over 70% and the pest or weed control at 121.5 g/ha was over 70%.
On to `CCCC[C@@H]1[C@@H](Cc2ccc(C(F)(F)F)cc2)COC[C@H](NC(=O)c2nccc(OC)c2OCOC(C)=O)C(=O)O[C@H]1C` [compound 16], for which the “LEPTNO disease control rating” value in test [1] was “A (>70)”. Besides, in test [2], the “ERYSGH disease control rating” value is “A (>70)”. Moreover, the pest or weed control at 121.5 g/ha in test [3] (setting [4]) and in test [3] (setting [5]) was over 70% each time.
In the case of `COc1ccnc(C(=O)N[C@H]2COC[C@H](Cc3ccccc3)[C@@H](Cc3ccccc3)[C@H](C)OC2=O)c1OC(C)=O` [compound 27], the “LEPTNO disease control rating” value in test [1] is on record as “A (>70)”. For the same compound, the “ERYSGH disease control rating” value in test [2] was “B (≤70)”. Also, the pest or weed control at 121.5 g/ha in test [3] (setting [4]) and in test [3] (setting [5]) was over 70% each time.
For the compound `COc1ccnc(C(=O)N[C@H]2COC[C@H](CC3CC3)[C@@H](c3ccccc3)[C@H](C)OC2=O)c1OC(C)=O` [compound 100], the “LEPTNO disease control rating” value in test [1] is listed as “A (>70)”. For the same compound, the “ERYSGH disease control rating” value in test [2] was “A (>70)”. For the same compound, the pest or weed control at 121.5 g/ha in test [3] (setting [4]) and in test [3] (setting [5]) was over 70% each time.
